Broadly, the IC50 is the point on the concentration scale where inhibition reaches its midpoint.

Where “and” joins values, the source holds several entries; their conditions need not be identical. Equal entries are not always repeated. No end group written: not given here.

The values below come from paper PMC4302234, “Multifunctional peptides derived from an egg yolk protein hydrolysate: isolation and characterization” (Amino Acids, 2014).

In assay [1] the target is T1, DPP-4 from porcine kidney (Sus scrofa, UniProt P22411).
T1 construct: DPP-4 from porcine kidney was purchased from Sigma (D7052); purchased Sigma D7052; host or cells: porcine kidney tissue
Description: Dipeptidyl peptidase-4 (DPP-4) inhibitory activity (Gly-Pro-p-nitroanilide). As to conditions: synthetic peptides, mean n = 3; for IC50: read-out: Enzyme inhibitory activity (IC50) DPP-4 (converted). It is filed as biochemical. The method, then: DPP-4 inhibitory activity (IC50) was determined using a modified method of Lacroix and Li-Chan (2013). DPP-4 from porcine kidney was purchased from Sigma (D7052). The lyophilized peptide fractions were re-suspended in 0.1 M Tris–HCl buffer, pH 8.0. The test sample (25 μL) was preincubated with an equal volume of the substrate Gly-Pro-p-nitroanilide (1.6 mM) at 37 °C for 10 min. Afterwards, 50 μL of DPP-4 (0.01 U/mL, in 0.1 M Tris–HCl buffer, pH 8.0) was added and the mixture was incubated at 37 °C for 60 min. The reaction was stopped by the addition of 100 μL of 1 M sodium acetate buffer, pH 4.0. The released p-nitroanilide as a hydrolysis product was measured at λ = 405 nm.
The IC50 value was defined as the concentration of inhibitor required to inhibit 50 % of DPP-4 activity under assay conditions.

Assay [2] can be described thus: Fe(II) ion chelation (ferrozine). As to conditions: synthetic peptides; mean n = 3. The method, then: Chelation of iron ions by hydrolysates was estimated by the method of Xu et al. ([2007]) with modifications. A 250 μL sample was mixed with 1,250 μL H2O and 110 μL 1 mM FeCl2. After 2 min, 1 mL of 500 μM ferrozine (Sigma 160601) aqueous solution was added and the mixture was allowed to react for 10 min. The absorbance of ferrous iron–ferrozine complex was measured spectrophotometrically at λ = 562 nm. A known concentration of FeCl2 (0–20 μg) was used to generate a standard curve and the ability to chelate iron ions was expressed as μg Fe^2+/mg protein.

The target of assay [3] is T2, ACE (EC 3.4.15.1; from rabbit lung) (Oryctolagus cuniculus, UniProt P12822).
T2 construct: The ACE (EC 3.4.15.1; from rabbit lung, Sigma, A6778); purchased Sigma A6778; host or cells: rabbit lung tissue
T2 sequence (P12822 34-1310): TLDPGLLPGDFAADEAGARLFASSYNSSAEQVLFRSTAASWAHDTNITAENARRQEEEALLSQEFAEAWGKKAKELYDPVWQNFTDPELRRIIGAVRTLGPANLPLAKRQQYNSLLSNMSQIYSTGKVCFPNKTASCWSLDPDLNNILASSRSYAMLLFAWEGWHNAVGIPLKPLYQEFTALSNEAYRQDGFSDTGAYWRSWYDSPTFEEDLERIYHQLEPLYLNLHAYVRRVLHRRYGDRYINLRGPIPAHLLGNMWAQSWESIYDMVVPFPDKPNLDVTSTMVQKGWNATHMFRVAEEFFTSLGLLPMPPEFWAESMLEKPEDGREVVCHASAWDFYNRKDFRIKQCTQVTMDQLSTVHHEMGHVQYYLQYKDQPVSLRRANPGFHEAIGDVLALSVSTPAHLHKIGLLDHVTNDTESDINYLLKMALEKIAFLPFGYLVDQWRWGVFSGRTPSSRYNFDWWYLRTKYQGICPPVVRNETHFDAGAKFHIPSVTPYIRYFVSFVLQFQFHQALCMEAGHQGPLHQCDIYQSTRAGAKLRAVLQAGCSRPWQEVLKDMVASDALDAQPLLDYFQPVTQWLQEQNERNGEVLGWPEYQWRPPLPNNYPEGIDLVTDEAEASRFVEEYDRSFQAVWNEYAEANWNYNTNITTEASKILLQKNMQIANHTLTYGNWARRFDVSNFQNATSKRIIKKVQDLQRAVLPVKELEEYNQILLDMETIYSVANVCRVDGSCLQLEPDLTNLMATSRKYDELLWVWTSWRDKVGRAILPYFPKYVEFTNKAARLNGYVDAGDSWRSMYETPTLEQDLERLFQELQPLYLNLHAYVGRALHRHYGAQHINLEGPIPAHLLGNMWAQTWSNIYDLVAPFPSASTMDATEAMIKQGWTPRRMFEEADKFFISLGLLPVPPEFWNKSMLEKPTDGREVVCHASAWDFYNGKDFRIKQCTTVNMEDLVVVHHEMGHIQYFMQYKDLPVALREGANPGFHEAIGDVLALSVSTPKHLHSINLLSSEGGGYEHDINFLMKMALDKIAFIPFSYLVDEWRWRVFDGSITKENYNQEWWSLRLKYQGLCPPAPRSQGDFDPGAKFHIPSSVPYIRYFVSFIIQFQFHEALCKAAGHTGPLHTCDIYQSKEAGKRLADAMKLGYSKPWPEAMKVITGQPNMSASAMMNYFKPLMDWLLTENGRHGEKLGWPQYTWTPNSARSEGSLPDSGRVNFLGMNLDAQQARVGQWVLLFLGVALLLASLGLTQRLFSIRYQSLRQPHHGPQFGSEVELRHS
As to the kind of experiment: ACE inhibitory activity (HHL substrate, spectrophotometric). Format: biochemical. The conditions noted are these: synthetic peptides; mean n = 3; read-out: Enzyme inhibitory activity (IC50) ACE (converted). The method, then:
The ACE (EC 3.4.15.1; from rabbit lung, Sigma, A6778) inhibitory activity of hydrolysate and peptide fractions was measured spectrophotometrically according to Miguel et al. ([2004]). A hydrolysate solution (40 µL) mixed with a Hippuryl-His-Leu (HHL) (Sigma H4884) solution (5 mM in 100 mM potassium phosphate containing 300 mM sodium chloride, pH 8.3) as substrate was preincubated at 37 °C for 5 min, and the reaction was initiated by adding 20 µL (2 mU) of ACE solution and incubating for 30 min at the same temperature. The enzymatic reaction was halted by the addition of 150 µL of 1 M HCl. The liberated hippuric acid was extracted using 1 mL of ethyl acetate and vigorous shaking, after which 750 µL of the upper layer was transferred into a test tube and evaporated in a vacuum. The hippuric acid left in the tubes was re-dissolved in 800 µL of distilled water and the absorbance was measured at λ = 228 nm. All samples were tested in three replications. The inhibition activity was calculated using the following equation:
Inhibition activity (%) = [(A − B)/A] × 100 %
where A is the reaction blank, of which the mixture contained the same volume of the buffer solution instead of the ACE inhibitor sample; B is the reaction in the presence of both ACE and its inhibitor. The IC50 value was estimated from a dose–response curve of an inhibitor versus the ACE activity.

The nature of assay [4]: Antioxidant activity as ability to scavenge DPPH free radicals. As to conditions: synthetic peptides; mean n = 3. The method, then:
The antioxidant activity of the obtained hydrolysates was assessed on the basis of the radical scavenging effect of the stable 1,1-diphenyl-2-picrylhydrazyl [DPPH (Sigma, D21140-0)]—free radical activity according to Yen and Chen ([1995]), with minor modifications. The tested samples were dissolved in water to a final volume of 1 mL and mixed with 1 mL of ethanol (98 %). The reaction was started by adding 0.5 mL of […] DPPH in ethanol. The mixtures were left for 30 min at room temperature and the absorbance of the resulting solutions was measured at 517 nm. For calibration, aqueous solutions of known Trolox concentrations ranging from 2 to 20 μg (able to scavenge 500 μL of 0.3 mM DPPH radical solution) were used. Radical scavenging activity of the peptides was expressed as µM troloxeq/mg protein.

The target in assay [5] is α-Glucosidase from Saccharomyces cerevisiae (Saccharomyces cerevisiae, UniProt P53341). Description: α-Glucosidase inhibitory activity (pNPG substrate). It is filed as biochemical. As to conditions: synthetic peptides, mean n = 3; for IC50: read-out: Enzyme inhibitory activity (IC50) α-Glucosidase (converted). The procedure: The α-glucosidase inhibition assay was performed according to the method of Yu et al. ([2011]). α-Glucosidase from Saccharomyces cerevisiae (Sigma G0660) hydrolyzes the substrate—p-nitrophenyl glucopyranoside (pNPG) (Sigma N1377) and the thus produced p-nitrophenol can be measured spectrophotometrically. 5 µL of the α-glucosidase solution (10 U/mL, in 0.1 M potassium phosphate buffer, pH 6.8) was premixed with 10 µL of the sample solution at different concentrations (in 10 % DMSO) in 620 µL of 0.1 M potassium phosphate buffer (pH 6.8). Following incubation at 37.5 °C for 20 min, 10 µL of p-nitrophenyl glucopyranoside (pNPG 10 mM) as substrate was added to the mixture to start the reaction and was then incubated at 37.5 °C for 30 min, followed by addition of 650 µL of 1 M Na2CO3 solution to terminate the reaction. The amount of released product (p-nitrophenol) was measured at λ = 410 nm. The IC50 value was defined as the concentration of inhibitor required to inhibit 50 % of α-glucosidase activity under assay conditions.

Assay [6] in a line: FRAP method (ferric reducing antioxidant power). The conditions noted are these: synthetic peptides; mean n = 3. The procedure:
The ferric reducing antioxidant power (FRAP) method was used to determine the antioxidative capacity of hydrolysates according to Benzie and Strain ([1996]). 3 mL of FRAP working solution [300 mM acetate buffer pH 3.6; 10 mM 2,4,6,tripyridyl-s-triazine (TPTZ) (Fluka, 93285) and 20 mM FeCl3 × 6 H2O (10:1:1 v/v)] was mixed with 1 mL of the sample. After 10 min of reaction, the absorbance was measured at λ = 593 nm. An aqueous solution of known Fe(II) concentration was used for calibration (in the range from 100 to 1,000 μg). Results were expressed as μg Fe^2+/mg protein.

Assay [7] has as its target α-glucosidase. The conditions noted are these: peptide from ovalbumin; ref Yu et al. [2012]; read-out: α-glucosidase inhibitory activity IC50; cited from earlier work.

T1 sequence (P22411 whole entry): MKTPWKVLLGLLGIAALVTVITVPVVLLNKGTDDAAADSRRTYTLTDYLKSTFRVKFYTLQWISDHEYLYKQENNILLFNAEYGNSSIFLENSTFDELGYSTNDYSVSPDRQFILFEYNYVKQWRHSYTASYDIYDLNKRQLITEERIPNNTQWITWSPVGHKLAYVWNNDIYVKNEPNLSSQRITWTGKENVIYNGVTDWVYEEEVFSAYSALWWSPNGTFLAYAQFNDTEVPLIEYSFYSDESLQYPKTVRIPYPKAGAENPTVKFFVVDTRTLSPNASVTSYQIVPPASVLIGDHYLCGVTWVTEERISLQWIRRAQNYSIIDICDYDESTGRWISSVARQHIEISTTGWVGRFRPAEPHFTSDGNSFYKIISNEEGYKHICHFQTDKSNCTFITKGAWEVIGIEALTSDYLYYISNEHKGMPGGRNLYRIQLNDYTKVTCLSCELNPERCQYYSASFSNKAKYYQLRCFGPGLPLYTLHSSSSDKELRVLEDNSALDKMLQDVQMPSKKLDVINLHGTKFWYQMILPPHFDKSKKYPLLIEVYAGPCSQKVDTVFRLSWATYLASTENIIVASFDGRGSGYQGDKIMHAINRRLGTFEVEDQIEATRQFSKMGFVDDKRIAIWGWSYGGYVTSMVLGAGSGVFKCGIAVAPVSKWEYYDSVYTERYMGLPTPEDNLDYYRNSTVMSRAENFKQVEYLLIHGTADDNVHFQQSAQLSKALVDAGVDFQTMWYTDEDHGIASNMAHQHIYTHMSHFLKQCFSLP
Sequence of α-Glucosidase from Saccharomyces cerevisiae (P53341 whole entry): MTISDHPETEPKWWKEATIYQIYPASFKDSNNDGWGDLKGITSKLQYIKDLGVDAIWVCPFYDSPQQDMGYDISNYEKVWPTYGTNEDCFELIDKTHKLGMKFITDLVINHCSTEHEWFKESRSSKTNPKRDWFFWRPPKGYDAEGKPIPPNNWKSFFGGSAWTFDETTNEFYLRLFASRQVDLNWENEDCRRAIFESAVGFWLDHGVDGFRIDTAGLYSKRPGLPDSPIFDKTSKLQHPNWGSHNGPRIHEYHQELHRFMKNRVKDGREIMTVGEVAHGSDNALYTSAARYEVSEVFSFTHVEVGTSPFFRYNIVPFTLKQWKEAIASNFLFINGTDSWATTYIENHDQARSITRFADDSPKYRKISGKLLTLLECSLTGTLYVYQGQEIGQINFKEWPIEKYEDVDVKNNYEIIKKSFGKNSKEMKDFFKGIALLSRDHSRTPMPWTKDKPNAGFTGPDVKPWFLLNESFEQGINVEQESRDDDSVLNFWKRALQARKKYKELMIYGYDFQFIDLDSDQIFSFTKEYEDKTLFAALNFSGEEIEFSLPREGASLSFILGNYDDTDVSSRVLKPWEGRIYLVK

Regarding YIEAVNKVSPRAGQF-OH [YIEAVNKVSPRAGQF], the “Enzyme inhibitory activity (IC50) DPP-4” value in assay [1] was “no impact”. The “Antioxidant activity CHEL.” value in assay [2] was 25.2b µg Fe^2+/mg. Also, in assay [3], the IC50 is 5.6 µM. Moreover, the “Antioxidant activity DPPH” value in assay [4] was 2.2 µM Troloxeq/mg and 2.2c µM Troloxeq/mg. Besides, in assay [5], the “Enzyme inhibitory activity (IC50) α-Glucosidase” value is listed as “no impact”. Further, the “Antioxidant activity FRAP” value in assay [6] was 61.0 µg Fe^2+/mg and 61.0b µg Fe^2+/mg.
As for YINQMPQKSRE [YINQMPQKSRE], the IC50 in assay [1] is 160 µM; in assay [3] it was 7.25 µM; in assay [5], 1220 µM.
As to KLPGF, the IC50 in assay [7] is 59.5 µM.
Turning to VTGRFAGHPAAQ [VTGRFAGHPAAQ], the figures for the IC50 in assay [1], in assay [3] and in assay [5] were 1160 µM, 22.5 µM and 302 µM, respectively.
As for YINQMPQKSREA [YINQMPQKSREA], the IC50 was 243 µM in assay [1], 8.6 µM in assay [3] and 310 µM in assay [5].
